These compounds were tested on Diabrotica undecimpunctata (assay: Example C: corn rootworm eggs with maize corn, mortality). Settings: 500 ppm or less; 4-5-day-old eggs; after 6 days.
Assay type: in vivo
Set-up: key: compounds were considered to be active when, at a concentration of 500 ppm or less, they had an activity on the harmful organisms of 50% or more

Question: For `CC1CCCN(CC#Cc2cc(C(F)(F)F)cc(C(F)(F)F)c2)C1` (stereo not drawn) [Example 31], which “effect on the eggs and hatched larvae (mortality)” value (“effect” for short) is on record?
Answer: active

Question: Which “effect” value does the source give for `CC1CCN(CC#Cc2ccc(C(F)(F)F)cn2)CC1` [Example 58] here?
Answer: active

Question: `Cc1cc(C)nc(C#CCN2CCC(C)CC2)c1` [Example 201] was tested. Which “effect” value did it give?
Answer: active

Question: How did the “effect” value turn out when `FC(F)(F)c1cc(C#CCN2CCC(C(F)(F)F)CC2)cc(C(F)(F)F)c1` [Example 205] was run?
Answer: active

Question: `CC1CCN(CC#Cc2ccc(Br)c(F)c2)CC1` [Example 207] was tested. Which “effect” value did it give?
Answer: active

Question: How did the “effect” value turn out when `COc1ccc(-c2ccc(C#CCN3CCC(C)CC3)cc2F)cc1` [Example 231] was run?
Answer: active

Question: For `FC(F)(F)c1cc(C#CCN2CCCC(C(F)(F)F)C2)cc(C(F)(F)F)c1` (stereo not drawn) [Example 281], which “effect” value is on record?
Answer: active

Question: Which “effect” value does the source give for `FC(F)(F)c1cc(C#CCN2CCCC(C(F)(F)F)C2)nc(C(F)(F)F)c1` (stereo not drawn) [Example 282] here?
Answer: active

Question: Which “effect” value does the source give for `CC1CCN(CC#Cc2c(Cl)cc(C(F)(F)F)cc2Cl)CC1` [Example 295] here?
Answer: active

Question: For `FC(F)(F)c1cccc(C#CCN2CCCC(C(F)(F)F)C2)c1` (stereo not drawn) [Example 297], which “effect” value is on record?
Answer: active

Question: With `CC1(C)CCCN(CC#Cc2cc(C(F)(F)F)cc(C(F)(F)F)c2)C1.Cl` [Example 1001] as the compound, how does the “effect” value read?
Answer: active

Question: With `Cl.FC(F)(F)c1cc(C#CCN2CCC(C(F)(F)F)CC2)nc(C(F)(F)F)c1` [Example 1050] as the compound, how does the “effect” value read?
Answer: active

Question: For `CC1CCN(CC#Cc2cc(C(F)(F)F)cc(C(F)(F)F)c2)CC1.O=C(O)/C=C\C(=O)O` [Example 1056], which “effect” value is on record?
Answer: active

What follows are compounds tested on Heliothis virescens (assay: Example B: tobacco budworm eggs on filter paper/insect diet, mortality). Settings: 500 ppm or less; 24-hour-old eggs dipped, diet treated; after 6 days.
Assay type: in vivo
Set-up: key: compounds were considered to be active when, at a concentration of 500 ppm or less, they had an activity on the harmful organisms of 50% or more

Question: Which “effect” value does the source give for `CC1CCN(CC#Cc2cccc(C(F)(F)F)c2)CC1` [Example 24] here?
Answer: active

Question: For `Cc1c(Cl)cccc1C#CCN1CCC(C)CC1` [Example 97], which “effect” value is on record?
Answer: active

Question: How did the “effect” value turn out when `Cc1cc(Cl)ccc1C#CCN1CCC(C)CC1` [Example 100] was run?
Answer: active

Question: Which “effect” value does the source give for `CC1CCN(CC#Cc2ccc(-c3ccccc3)cc2)CC1` [Example 119] here?
Answer: active

Question: How did the “effect” value turn out when `CC1CCN(CC#Cc2ccc(F)c(Cl)c2)CC1` [Example 124] was run?
Answer: active

Question: With `CC1CCN(CC#Cc2ccnc(C(F)(F)F)n2)CC1` [Example 167] as the compound, how does the “effect” value read?
Answer: active

Question: `CC1CCN(CC#Cc2ccc(-c3cc(C(F)(F)F)ccc3Cl)cc2)CC1` [Example 171] was tested. Which “effect” value did it give?
Answer: active

Question: For `CC1CCN(CC#Cc2ccc(-c3ccc(C(F)(F)F)cc3)cc2)CC1` [Example 172], which “effect” value is on record?
Answer: active

Question: With `CC1CCN(CC#Cc2ccc(-c3cccc(Cl)c3)cc2)CC1` [Example 173] as the compound, how does the “effect” value read?
Answer: active

Question: Which “effect” value does the source give for `CC1CCN(CC#Cc2ccc(-c3ccccc3Cl)cc2)CC1` [Example 174] here?
Answer: active

Question: How did the “effect” value turn out when `CC1CCN(CC#Cc2ccc(-c3ccc(Cl)cc3Cl)cc2)CC1` [Example 176] was run?
Answer: active

Question: For `CC1CCN(CC#Cc2ccc(-c3cc(F)cc([N+](=O)[O-])c3)cc2)CC1` [Example 177], which “effect” value is on record?
Answer: active

Question: For `CCOC(=O)c1cccc(-c2ccc(C#CCN3CCC(C)CC3)cc2)c1` [Example 178], which “effect” value is on record?
Answer: active

Question: `COc1ccc(-c2ccc(C#CCN3CCC(C)CC3)cc2)cc1` [Example 181] was tested. Which “effect” value did it give?
Answer: active

Question: With `CC1CCN(CC#Cc2ccc(-c3cccc(C(F)(F)F)c3)cc2)CC1` [Example 182] as the compound, how does the “effect” value read?
Answer: active

Question: How did the “effect” value turn out when `Cc1cc(C)nc(C#CCN2CCC(C)CC2)c1` [Example 201] was run?
Answer: active

Question: Which “effect” value does the source give for `CC1CCN(CC#Cc2ccc(Br)c(F)c2)CC1` [Example 207] here?
Answer: active

Question: With `CC(=O)c1ccc(C#CCN2CCC(C)CC2)s1` [Example 214] as the compound, how does the “effect” value read?
Answer: active

Question: For `CC1CCN(CC#Cc2cccc(-c3ccc(C(F)(F)F)cc3)c2)CC1` [Example 217], which “effect” value is on record?
Answer: active

Question: For `CC1CCN(CC#Cc2cccc(-c3cccc4ccccc34)c2)CC1` [Example 221], which “effect” value is on record?
Answer: active

Question: Which “effect” value does the source give for `CC1CCN(CC#Cc2cccc(-c3ccc(Cl)cc3)c2)CC1` [Example 222] here?
Answer: active

Question: `CC1CCN(CC#Cc2cccc(-c3cnc(Cl)c(Cl)c3)c2)CC1` [Example 224] was tested. Which “effect” value did it give?
Answer: active

Question: With `CC1CCN(CC#Cc2cccc(-c3ccc(Cl)s3)c2)CC1` [Example 225] as the compound, how does the “effect” value read?
Answer: active

Question: Which “effect” value does the source give for `CC1CCN(CC#Cc2cccc(-c3ccc(C#N)cc3)c2)CC1` [Example 226] here?
Answer: active

Question: `CC1CCN(CC#Cc2ccc(-c3cccc(C(F)(F)F)c3)s2)CC1` [Example 229] was tested. Which “effect” value did it give?
Answer: active

Question: How did the “effect” value turn out when `Cc1cc(C#CCN2CCC(C)CC2)sc1-c1ccc(F)cc1` [Example 232] was run?
Answer: active

Question: With `Cc1ccc(-c2sc(C#CCN3CCC(C)CC3)cc2C)cc1` [Example 236] as the compound, how does the “effect” value read?
Answer: active

Question: `Cc1cc(C#CCN2CCC(C)CC2)sc1-c1ccc(Cl)cc1` [Example 239] was tested. Which “effect” value did it give?
Answer: active

Question: `CC1CCN(CC#Cc2ccc(-c3ccccc3)s2)CC1` [Example 240] was tested. Which “effect” value did it give?
Answer: active

Question: How did the “effect” value turn out when `Cc1ccc(-c2ccc(C#CCN3CCC(C)CC3)s2)cc1` [Example 241] was run?
Answer: active

Question: Which “effect” value does the source give for `Cc1cccc(-c2ccc(C#CCN3CCC(C)CC3)s2)c1` [Example 246] here?
Answer: active

Question: For `CC1CCN(CC#Cc2ccc(-c3cccc(Cl)c3)s2)CC1` [Example 247], which “effect” value is on record?
Answer: active

Question: `CC1CCN(CC#Cc2ccc(-c3cc(C(F)(F)F)cc(C(F)(F)F)c3)s2)CC1` [Example 271] was tested. Which “effect” value did it give?
Answer: active

Question: With `CC1CCN(CC#Cc2ccc(-c3cc(Cl)cc(Cl)c3)s2)CC1` [Example 273] as the compound, how does the “effect” value read?
Answer: active

Question: `CC1CCN(CC#Cc2cc(Cl)c(OC(F)(F)C(F)Cl)c(Cl)c2)CC1` (stereo not drawn) [Example 283] was tested. Which “effect” value did it give?
Answer: active

Question: How did the “effect” value turn out when `Cc1ccc(C#CCN2CCC(C)CC2)cc1C(F)(F)F` [Example 284] was run?
Answer: active

Question: For `CC1CCN(CC#Cc2ccc(F)c(C(F)(F)F)c2)CC1` [Example 285], which “effect” value is on record?
Answer: active

Question: `CC1CCN(CC#Cc2c(Cl)cc(C(F)(F)F)cc2Cl)CC1` [Example 295] was tested. Which “effect” value did it give?
Answer: active

Question: Which “effect” value does the source give for `CC1CCN(CC#Cc2ccc(C=NOCc3ccc(Cl)cc3Cl)s2)CC1` [Example 296] here?
Answer: active

Question: `CC1CCN(CC#Cc2ccc(Cl)cc2Cl)CC1.Cl` [Example 1000] was tested. Which “effect” value did it give?
Answer: active

Question: With `CC1CCN(CC#Cc2cc(Cl)cc(Cl)c2)CC1.Cl` [Example 1011] as the compound, how does the “effect” value read?
Answer: active

Question: `CC1CCN(CC#Cc2cc(C(F)(F)F)cc(C(F)(F)F)c2)CC1.O=C(O)/C=C\C(=O)O` [Example 1056] was tested. Which “effect” value did it give?
Answer: active

Each compound was assayed on Aedes aegypti (assay: Example AG: microtiter plate, yellow fever mosquito larvicidal activity). Settings: 500 ppm or less, after 3 days.
Assay type: in vivo
Set-up: key: compounds were considered to be active when, at a concentration of 500 ppm or less, they had an activity on the harmful organisms of 50% or more

Question: For `Cc1cc(C#CCN2CCC(C)CC2)sc1Br` [Example 213], which larvicidal activity is on record?
Answer: active

Question: `CC1CCN(CC#Cc2cccc(-c3cc(C(F)(F)F)cc(C(F)(F)F)c3)c2)CC1` [Example 218] was tested. Which larvicidal activity did it give?
Answer: active

Question: How did the larvicidal activity turn out when `CC1CCN(CC#Cc2cccc(-c3cccc(Cl)c3)c2)CC1` [Example 219] was run?
Answer: active

Question: With `CC1CCN(CC#Cc2ccc(-c3ccc(C(F)(F)F)cc3)s2)CC1` [Example 242] as the compound, how does the larvicidal activity read?
Answer: active

Question: For `Cc1ccc(-c2ccc(C#CCN3CCC(C)CC3)cc2F)cc1` [Example 248], which larvicidal activity is on record?
Answer: active
